Source: ChEMBL document CHEMBL1154020, “Tricyclic indole and dihydroindole derivatives as new inhibitors of soluble guanylate cyclase” (Bioorg Med Chem Lett, 2009)
The source made the active and inactive calls. No cut-off for these calls is given here.

How the values were obtained:
Rattus norvegicus [1] = species: Rattus norvegicus; experiment: Inhibition of soluble guanylate cyclase in rat aortic smooth muscle cells assessed as decrease in SNP-induced cGMP production at 100 uM pretreated 30 min before SNP challenge by enzyme immunoassay
Rattus norvegicus [2] = species: Rattus norvegicus; experiment: Inhibition of soluble guanylate cyclase in rat aortic smooth muscle cells assessed as decrease in SNP-induced cGMP production at 1 uM pretreated 30 min before SNP challenge by enzyme immunoassay
Rattus norvegicus [3] = species: Rattus norvegicus; experiment: Inhibition of particulate guanylate cyclase in rat aortic smooth muscle cells assessed as decrease in ANF-induced cGMP production at 100 uM pretreated 30 min before ANF challenge by enzyme immunoassay
Rattus norvegicus [4] = species: Rattus norvegicus; experiment: Inhibition of soluble guanylate cyclase in rat aortic smooth muscle cells assessed as decrease in cGMP production at 100 uM after 30 mins by enzyme immunoassay
Rattus norvegicus [5] = species: Rattus norvegicus; experiment: Inhibition of soluble guanylate cyclase in rat aortic smooth muscle cells assessed as decrease in SNP-induced cGMP production pretreated 30 min before SNP challenge by enzyme immunoassay

Activity (Rattus norvegicus [1])	Activity (Rattus norvegicus [2])	Activity (Rattus norvegicus [3])	Activity (Rattus norvegicus [4])	Activity (Rattus norvegicus [5])	SMILES
Active					CCOCn1ccc2c1CCc1cnn(-c3ccccc3)c1-2
Active	Active				CCOCn1ccc2c1CCc1cnn(C)c1-2
Active	inactive				CCOCn1ccc2c1CCc1cnoc1-2
		inactive	inactive	Dose-dependent effect	CCOCn1ccc2c3oncc3ccc21
